According to US20250090571A1, “CARD9 ATTENUATES AB PATHOLOGY AND MODIFIES MICROGLIAL RESPONSES IN AN ALZHEIMER’S DISEASE” (University of Virginia Patent Foundation, priority 2023, published 2025):

Experiments:
Format in all cases: in vivo, mouse
Card9−/−5×FAD mice [1] = test: Intrahippocampal injection of pustulan, Aβ load in the hippocampus by immunofluorescence (CARD9-deficient control); settings: 2-month-old Card9−/−5×FAD mice, 2 μg pustulan intrahippocampal, 7 days post-injection, vs vehicle-treated hemisphere
Procedure: (§1) As previously published (110), brain sections were blocked for 1 hour at room temperature with 2% donkey serum, 1% bovine serum albumin, 0.1% triton, 0.05% tween in PBS prior to incubation with primary antibodies. The primary antibodies were then diluted in this block overnight at 4° C. Brain sections were stained with anti-Aβ (D54D2, Cell Signaling, 1:300 dilution) to label plaques. To assess neuronal cell death, sections were stained with anti-NeuN (MAβ377, Millipore Sigma, 1:500 dilution) and TUNEL (Millipore Sigma, 11684795910, according to the manufacturer's instructions). In order to analyze microglia, sections were stained with IBA1 (ab5076, Abcam, 1:300 dilution). Microglial proliferation was assessed using Ki67-EF660 (SolA15, Thermo Fisher, 1:100 dilution). Microglial iron accumulation was measured using Ferritin Heavy Chain (PA5-27500, Thermo Fisher, 1:500). Following primary antibody incubation, sections were then washed 3 times for 10 minutes at room temperature in PBS and 0.05% tween-20. After washing, the brain sections were incubated in respective donkey Alexa Fluor 488, 594, 647 anti-rabbit, -goat, -rat, -streptavidin, and-mouse (Thermo Fisher, 1:1000 dilution) for 2 hours at room temperature. Once again, brain sections were washed 3 times for 10 minutes at room temperature. […] Images were analyzed using FIJI software or Imaris software (9.5.1). […]

5×FAD mice [2] = test: Intrahippocampal injection of pustulan, Aβ load in the hippocampus by immunofluorescence; settings: 2-month-old 5×FAD mice, 2 μg pustulan intrahippocampal, 7 days post-injection, vs vehicle-treated hemisphere
Procedure: As previously published (110), brain sections were blocked for 1 hour at room temperature with 2% donkey serum, 1% bovine serum albumin, 0.1% triton, 0.05% tween in PBS prior to incubation with primary antibodies. The primary antibodies were then diluted in this block overnight at 4° C. Brain sections were stained with anti-Aβ (D54D2, Cell Signaling, 1:300 dilution) to label plaques. To assess neuronal cell death, sections were stained with anti-NeuN (MAβ377, Millipore Sigma, 1:500 dilution) and TUNEL (Millipore Sigma, 11684795910, according to the manufacturer's instructions). In order to analyze microglia, sections were stained with IBA1 (ab5076, Abcam, 1:300 dilution). Microglial proliferation was assessed using Ki67-EF660 (SolA15, Thermo Fisher, 1:100 dilution). Microglial iron accumulation was measured using Ferritin Heavy Chain (PA5-27500, Thermo Fisher, 1:500). Following primary antibody incubation, sections were then washed 3 times for 10 minutes at room temperature in PBS and 0.05% tween-20. After washing, the brain sections were incubated in respective donkey Alexa Fluor 488, 594, 647 anti-rabbit, -goat, -rat, -streptavidin, and-mouse (Thermo Fisher, 1:1000 dilution) for 2 hours at room temperature. Once again, brain sections were washed 3 times for 10 minutes at room temperature. […] Images were analyzed using FIJI software or Imaris software (9.5.1).
5×FAD and Card9^−/−5×FAD mice were anesthetized with a ketamine/xylazine cocktail before receiving a bilateral hippocampal injection of 2 μl of vehicle or 2 μg pustulan into the right and left hemisphere of the hippocampus (at +2 mm lateral, -2 mm posterior, and −2 mm ventral relative to the intersection of the coronal and sagittal suture (bregma) at a rate of 200 nl/min) using a stereotaxic frame (51730U, Stoelting) and nanoliter injector (NL2010MC2T, World Precision Instruments). […] Images were analyzed using FIJI software or Imaris software (9.5.1). […]

5×FAD mice [3] = test: Microglia depletion with PLX5622 chow, microgliosis and Aβ load in the cortex; settings: PLX5622 chow for 2.5 months, vs normal chow
Procedure: as §1

Card9−/−5×FAD mice [4] = test: Microglia depletion with PLX5622 chow, microgliosis and Aβ load in the cortex (CARD9-deficient); settings: PLX5622 chow for 2.5 months, vs control chow
Procedure: as §1

Compound	levels of Aβ in the hippocampus (Card9−/−5×FAD mice [1])	Aβ coverage in the hippocampus (5×FAD mice [2])	Aβ plaque volume in the hippocampus (5×FAD mice [2])	number of Aβ plaques in the hippocampus (5×FAD mice [2])	Aβ plaque load in the cortex (5×FAD mice [3])	Aβ plaque load in the cortex (Card9−/−5×FAD mice [4])
Pustulan	comparable levels of Aβ regardless of treatment	significantly reduced	lower plaque volume	fewer plaques	–	–
COc1ncc(F)cc1CNc1ccc(Cc2c[nH]c3ncc(C)cc23)c(F)n1 [PLX5622]	–	–	–	–	significantly increased	did not significantly impact
